Consider six compounds from ChEMBL document CHEMBL3045461, “Biological evaluation of synthetic analogues of curcumin: chloro-substituted-2-hydroxychalcones as potential inhibitors of tubulin polymerization and cell proliferation” (Med Chem Res, 2011).

For orientation: IC50 means the concentration that gives 50% inhibition. As a reminder, the inhibition is the share of the control response that was lost under treatment. For orientation: Kd means the free concentration of one partner at which half of the binding sites on the other are occupied at equilibrium, for simple one-to-one binding.

The target of assay [1] is Tubulin alpha 4a (Ovis aries) (UniProt C5ISA2). The assay is described as follows: Binding affinity to Ovis aries (sheep) brain tubulin assessed as […] at 25 to 50 uM after 30 min by far-UV CD spectrum analysis.
Assay [2] concerns the target T1, Tubulin alpha 4a (Ovis aries, UniProt C5ISA2). The assay is described as follows: (§1) Inhibition of Ovis aries (sheep) brain tubulin polymerization assessed as microtubule assembly after 30 min by CD spectra analysis.
The target in assay [3] is Tubulin alpha 4a (Ovis aries) (UniProt C5ISA2). Described as §1.
For assay [4], the system named is SK-N-MC. The assay is described as follows: Cytotoxicity against Homo sapiens (human) SK-N-MC cells after 72 hr by MTT assay. The class given is functional, cell-based. A general note: Formazan colour is commonly taken as a measure of viable cells.
In assay [5] the target is T1, Tubulin alpha 4a. In words: (§2) Inhibition of Ovis aries (sheep) brain tubulin polymerization assessed as microtubule assembly after 15 min by measuring turbidity based spectroscopic analysis.
The target of assay [6] is Tubulin alpha 4a (Ovis aries) (UniProt C5ISA2). The description is as §2.
Assay [7] has the same target. In words: Inhibition of Ovis aries (sheep) brain tubulin polymerization assessed as reduction of length of microtubule filament at 20 to 30 uM after 15 min by transmission electron microscopy analysis.
Assay [8] deals with T1, Tubulin alpha 4a. In words: (§3) Binding affinity to Ovis aries (sheep) brain tubulin assessed as intrinsic tryptophan fluorescence after 30 min by fluorescence spectroscopic analysis. The class given is tissue-based.
The target in assay [9] is Tubulin alpha 4a (Ovis aries) (UniProt C5ISA2). Described as §3. The class given is tissue-based.
Assay [10] relates to K562. In words: Cytotoxicity against Homo sapiens (human) K562 cells after 72 hr by MTT assay. The class given is functional, cell-based. The note with it: K562, 72 h.
Assay [11] concerns the target Tubulin alpha 4a (Ovis aries) (UniProt C5ISA2). The assay is described as follows: Inhibition of Ovis aries (sheep) brain tubulin polymerization assessed as microtubule assembly at 30 uM after 30 min by CD spectra analysis.
The target is the same in assay [12]. In words: Binding affinity to Ovis aries (sheep) brain tubulin assessed as increase in fluorescent intensity at 1:1 compound protein ratio after 30 min by fluorescence spectroscopic analysis.
The test system of assay [13] is K562. The assay is described as follows: Cytotoxicity against Homo sapiens (human) K562 cells. The class given is functional, cell-based.
The subject of assay [14] is MCF7. In words: Antiproliferative activity against Homo sapiens (human) MCF7 cells. The class given is functional, cell-based.
Assay [15] has as its system HeLa. The assay is described as follows: Antiproliferative activity against Homo sapiens (human) HeLa cells. The class given is functional, cell-based.

Structures are written as SMILES. Activity calls are given as the source filed them. No cut-off for these calls is given here. Some results are limits rather than exact numbers.

T1 sequence (C5ISA2 1-448): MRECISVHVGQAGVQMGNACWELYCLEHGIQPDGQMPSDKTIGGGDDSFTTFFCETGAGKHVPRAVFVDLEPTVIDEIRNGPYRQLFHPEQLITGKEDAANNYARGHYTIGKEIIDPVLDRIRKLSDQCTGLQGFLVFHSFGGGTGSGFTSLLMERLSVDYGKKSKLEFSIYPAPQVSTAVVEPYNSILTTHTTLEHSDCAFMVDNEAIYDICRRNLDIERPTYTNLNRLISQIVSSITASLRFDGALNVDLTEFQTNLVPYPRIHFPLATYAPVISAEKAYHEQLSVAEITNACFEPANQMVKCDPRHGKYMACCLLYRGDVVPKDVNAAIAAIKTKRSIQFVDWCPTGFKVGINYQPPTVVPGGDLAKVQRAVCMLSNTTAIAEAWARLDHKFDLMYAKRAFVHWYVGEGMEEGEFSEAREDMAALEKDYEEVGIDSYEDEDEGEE
Chain of Tubulin alpha 4a (Ovis aries) (C5ISA2 1-448): as above

In the case of `O=C(/C=C/c1cccc(Cl)c1)c1cc(Cl)ccc1O`, the result in assay [1] and in assay [12] was Active. Moreover, the IC50 was 19.6 µM in [2], 47.8 µM in assay [4], 19.6 µM in [5] and 41.1 µM in assay [10]. The figures for the inhibition entry in assay [3], in assay [6] and in [11] were “Dose-dependent effect”, “Dose-dependent effect” and 89%, respectively. Also, in [7], the inhibition entry is “Active”. Moreover, the Kd in assay [8] worked out at 3.7 µM. Further, the Activity result in [9] is “Dose-dependent effect”.

Regarding `COc1cc(/C=C/C(=O)CC(=O)/C=C/c2ccc(O)c(OC)c2)ccc1O` [CURCUMIN], the IC50 in [13] is 54.3 µM; in assay [4], 57.4 µM; in assay [14], 12 µM; in [5], 26.6 µM; in assay [10] it was 49.2 µM; in assay [15], 13.8 µM.

For the compound `O=C(/C=C/c1ccccc1)c1ccccc1O` [2'-HYDROXYCHALCONE], the half-maximal inhibitory concentration (IC50) came out at 61.2 µM in assay [4], 49.3 µM in assay [5] and 60.7 µM in assay [10].

Take `O=C(/C=C/c1ccccc1Cl)c1cc(Cl)ccc1O`: the half-maximal inhibitory concentration (IC50) in assay [4] was determined as 51.3 µM; in assay [5], 21.4 µM; in assay [10] it was 41.8 µM. In [6], the inhibition result was “Dose-dependent effect”.

Regarding `O=C(/C=C/c1ccc(Cl)cc1Cl)c1cc(Cl)ccc1O`, the half-maximal inhibitory concentration (IC50) in assay [4] was 69.8 µM; in assay [5], over 50 µM; in assay [10], 65.6 µM.

Turning to `O=C(/C=C/c1ccc(Cl)cc1)c1cc(Cl)ccc1O`, the IC50 in assay [4] was 45.8 µM; in assay [5] it was 20.3 µM; in assay [10], 38.7 µM. Also, the inhibition result in assay [6] is “Dose-dependent effect”.
